Data on 6 molecules can be found in ChEMBL document CHEMBL5724914, “Linking interpersonal differences in gut microbiota composition and drug biotransformation activity” (2024).

Data set [1] is described as follows: The drug is tested on WLS-082 corresponding to human gut metagenome with ENA study accession number: PRJEB37062 and ENA sample accession number: ERS12561751 for biotransformation under anaerobic condition. The drug concentrations were measured over 9 timepoints collected between 0 and 24 hours of incubation by liquid-chromatography-coupled mass spectrometry (LC–MS). The conditions noted are these: 2 µM.

The conditions of data set [2]: human gut metagenome, 24 h, 2 µM.
A short description of data set [3]: The drug is tested on Z-016 corresponding to mouse gut metagenome with ENA study accession number: PRJEB37062 and ENA sample accession number: ERS12561815 for biotransformation under anaerobic condition. The drug concentrations were measured over 9 timepoints collected between 0 and 24 hours of incubation by liquid-chromatography-coupled mass spectrometry (LC–MS). The conditions noted are these: 2 µM.

A short description of data set [4]: The drug is tested on WLS-220 corresponding to human gut metagenome with ENA study accession number: PRJEB37062 and ENA sample accession number: ERS12561769 for biotransformation under anaerobic condition. The drug concentrations were measured over 9 timepoints collected between 0 and 24 hours of incubation by liquid-chromatography-coupled mass spectrometry (LC–MS). The conditions noted are these: 2 µM.

For data set [5] the following is noted: human gut metagenome, 24 h, 2 µM. This is another data set of the same source.
For data set [6] the following is noted: human gut metagenome, 24 h, 2 µM. The source holds these as a separate data set.
Data set [7] can be described thus: The drug is tested on Z-009 corresponding to pig gut metagenome with ENA study accession number: PRJEB37062 and ENA sample accession number: ERS12561809 for biotransformation under anaerobic condition. The drug concentrations were measured over 9 timepoints collected between 0 and 24 hours of incubation by liquid-chromatography-coupled mass spectrometry (LC–MS). The conditions noted are these: 2 µM.

A short description of data set [8]: The drug is tested on WLS-006 corresponding to human gut metagenome with ENA study accession number: PRJEB37062 and ENA sample accession number: ERS12561741 for biotransformation under anaerobic condition. The drug concentrations were measured over 9 timepoints collected between 0 and 24 hours of incubation by liquid-chromatography-coupled mass spectrometry (LC–MS). The conditions noted are these: 2 µM.

Data set [9] can be described thus: The drug is tested on WLS-086 corresponding to human gut metagenome with ENA study accession number: PRJEB37062 and ENA sample accession number: ERS12561752 for biotransformation under anaerobic condition. The drug concentrations were measured over 9 timepoints collected between 0 and 24 hours of incubation by liquid-chromatography-coupled mass spectrometry (LC–MS). The note with it: 2 µM.

Data set [10] is described as follows: The drug is tested on Z-023 corresponding to metagenome with ENA study accession number: PRJEB37062 and ENA sample accession number: ERS12561822 for biotransformation under anaerobic condition. The drug concentrations were measured over 9 timepoints collected between 0 and 24 hours of incubation by liquid-chromatography-coupled mass spectrometry (LC–MS). The conditions noted are these: 2 µM.

Data set [11] in a line: The drug is tested on WLS-077 corresponding to human gut metagenome with ENA study accession number: PRJEB37062 and ENA sample accession number: ERS12561750 for biotransformation under anaerobic condition. The drug concentrations were measured over 9 timepoints collected between 0 and 24 hours of incubation by liquid-chromatography-coupled mass spectrometry (LC–MS). The note with it: 2 µM.

The conditions of data set [12]: human gut metagenome, 24 h, 2 µM. The source holds these as a separate data set.
The nature of data set [13]: The drug is tested on Z-021 corresponding to metagenome with ENA study accession number: PRJEB37062 and ENA sample accession number: ERS12561820 for biotransformation under anaerobic condition. The drug concentrations were measured over 9 timepoints collected between 0 and 24 hours of incubation by liquid-chromatography-coupled mass spectrometry (LC–MS). The note with it: 2 µM.

The nature of data set [14]: The drug is tested on WLS-370 corresponding to human gut metagenome with ENA study accession number: PRJEB37062 and ENA sample accession number: ERS12561793 for biotransformation under anaerobic condition. The drug concentrations were measured over 9 timepoints collected between 0 and 24 hours of incubation by liquid-chromatography-coupled mass spectrometry (LC–MS). The note with it: 2 µM.

For data set [15] the following is noted: human gut metagenome, 24 h, 2 µM. The source holds these as a separate data set.
A short description of data set [16]: The drug is tested on WLS-170 corresponding to human gut metagenome with ENA study accession number: PRJEB37062 and ENA sample accession number: ERS12561762 for biotransformation under anaerobic condition. The drug concentrations were measured over 9 timepoints collected between 0 and 24 hours of incubation by liquid-chromatography-coupled mass spectrometry (LC–MS). The note with it: 2 µM.

The conditions of data set [17]: human gut metagenome, 24 h, 2 µM. The source holds these as a separate data set.
For data set [18] the following is noted: human gut metagenome, 24 h, 2 µM. The source holds these as a separate data set.
For data set [19] the following is noted: human gut metagenome, 24 h, 2 µM. The source holds these as a separate data set.
Data set [20] can be described thus: The drug is tested on Z-008 corresponding to metagenome with ENA study accession number: PRJEB37062 and ENA sample accession number: ERS12561808 for biotransformation under anaerobic condition. The drug concentrations were measured over 9 timepoints collected between 0 and 24 hours of incubation by liquid-chromatography-coupled mass spectrometry (LC–MS). The conditions noted are these: 2 µM.
Further: call rule not given here.

Take `O=c1[nH]c2ccccc2n1C1CCN(CCCC(c2ccc(F)cc2)c2ccc(F)cc2)CC1` [PIMOZIDE]: the “Bacterial Biotransformation” value in [1], in [2], in data set [3], in data set [4], in data set [5] and in data set [6] was “Compound metabolized” in each case. Moreover, the “Bacterial Biotransformation” value in data set [7] is recorded as “Compound metabolized”; in [8], “Compound metabolized”; in [9] it was “Compound metabolized”; in [10] it was “Compound NOT metabolized”; in [11] it was “Compound NOT metabolized”; in data set [12], “Compound metabolized”. For the same molecule, the “Bacterial Biotransformation” value is reported as “Compound metabolized” in data set [13]; “Compound metabolized” in data set [14]; “Compound NOT metabolized” in [15]; “Compound metabolized” in [16]; “Compound metabolized” in data set [17]; “Compound metabolized” in data set [18]. Besides, the “Bacterial Biotransformation” value in data set [19] and in data set [20] was “Compound metabolized” throughout.
For the molecule `CS(=O)(=O)O.OC(CCN1CCCCC1)(c1ccccc1)c1ccccc1` [PRIDINOL METHANESULFONATE], the “Bacterial Biotransformation” value is on record as “Compound NOT metabolized” in data set [1]; “Compound metabolized” in data set [2]; “Compound NOT metabolized” in data set [3]; “Compound metabolized” in data set [4]; “Compound NOT metabolized” in [5]; “Compound NOT metabolized” in data set [6]. Also, the “Bacterial Biotransformation” value in [7] is recorded as “Compound NOT metabolized”; in [8], “Compound metabolized”; in [9], “Compound metabolized”; in data set [10] it was “Compound NOT metabolized”; in data set [11] it was “Compound NOT metabolized”; in data set [12] it was “Compound metabolized”. Besides, the “Bacterial Biotransformation” value in data set [13] is recorded as “Compound NOT metabolized”; in data set [14], “Compound NOT metabolized”; in data set [15] it was “Compound NOT metabolized”; in data set [16], “Compound metabolized”; in [17], “Compound metabolized”; in [18], “Compound metabolized”. Also, the “Bacterial Biotransformation” value in data set [19] and in data set [20] was “Compound NOT metabolized” throughout.
As for `CC(CN1c2ccccc2Sc2ccccc21)N(C)C` (stereo not given) [PROMETHAZINE], the “Bacterial Biotransformation” value in data set [1] is listed as “Compound NOT metabolized”; in data set [2], “Compound metabolized”; in data set [3], “Compound NOT metabolized”; in data set [4], “Compound metabolized”; in data set [5] it was “Compound NOT metabolized”; in [6], “Compound NOT metabolized”. Also, the “Bacterial Biotransformation” value in data set [7] is on record as “Compound NOT metabolized”; in data set [8] it was “Compound metabolized”; in data set [9], “Compound metabolized”; in data set [10], “Compound metabolized”; in data set [11] it was “Compound NOT metabolized”; in data set [12], “Compound metabolized”. In addition, the “Bacterial Biotransformation” value in data set [13] was “Compound NOT metabolized”; in data set [14], “Compound NOT metabolized”; in data set [15], “Compound metabolized”; in data set [16], “Compound metabolized”; in data set [17], “Compound metabolized”; in data set [18], “Compound metabolized”. The “Bacterial Biotransformation” value in data set [19] is on record as “Compound metabolized”; in data set [20], “Compound NOT metabolized”.
Turning to `OCCOCCN1CCN(C2=Nc3ccccc3Sc3ccccc32)CC1` [QUETIAPINE], the “Bacterial Biotransformation” value in data set [1] is on record as “Compound NOT metabolized”; in [2] it was “Compound metabolized”; in data set [3] it was “Compound NOT metabolized”; in data set [4], “Compound metabolized”; in data set [5], “Compound NOT metabolized”; in data set [6], “Compound metabolized”. Further, the “Bacterial Biotransformation” value in data set [7] is given as “Compound NOT metabolized”; in [8], “Compound NOT metabolized”; in data set [9], “Compound metabolized”; in [10] it was “Compound NOT metabolized”; in data set [11] it was “Compound NOT metabolized”; in data set [12], “Compound metabolized”. Moreover, the “Bacterial Biotransformation” value in data set [13] is reported as “Compound NOT metabolized”; in [14] it was “Compound metabolized”; in data set [15], “Compound NOT metabolized”; in data set [16], “Compound metabolized”; in data set [17], “Compound metabolized”; in data set [18] it was “Compound metabolized”. Further, the “Bacterial Biotransformation” value in data set [19] and in data set [20] was “Compound NOT metabolized” throughout.
With `CCC(=O)NCC[C@@H]1CCc2ccc3c(c21)CCO3` [RAMELTEON], the “Bacterial Biotransformation” value in data set [1], in [2], in [3], in data set [4], in data set [5] and in [6] was “Compound metabolized” in each case. In addition, the “Bacterial Biotransformation” value in data set [7], in data set [8], in data set [9], in [10], in data set [11] and in data set [12] was “Compound metabolized” in each case. Also, the “Bacterial Biotransformation” value in [13], in [14], in data set [15], in data set [16], in data set [17] and in [18] was “Compound metabolized” throughout. Besides, the “Bacterial Biotransformation” value in data set [19] and in data set [20] was “Compound metabolized” in each case.
Consider `CNC(=C[N+](=O)[O-])NCCSCc1ccc(CN(C)C)o1` [RANITIDINE], for which the “Bacterial Biotransformation” value in data set [1] was “Compound metabolized”; in data set [2], “Compound metabolized”; in data set [3], “Compound metabolized”; in [4], “Compound NOT metabolized”; in data set [5], “Compound metabolized”; in [6], “Compound NOT metabolized”. Besides, the “Bacterial Biotransformation” value was “Compound metabolized” in data set [7]; “Compound metabolized” in data set [8]; “Compound NOT metabolized” in [9]; “Compound metabolized” in [10]; “Compound NOT metabolized” in [11]; “Compound NOT metabolized” in data set [12]. Further, the “Bacterial Biotransformation” value in data set [13], in data set [14], in data set [15], in [16], in data set [17] and in data set [18] was “Compound NOT metabolized” each time. Moreover, the “Bacterial Biotransformation” value in data set [19] and in data set [20] was “Compound NOT metabolized” each time.
